Reference: patent publication US20260159533A1, “INHIBITORS OF COMPLEMENT FACTORS AND USES THEREOF” (Annexon, Inc., priority 2022, published 2026)
Counter-ions that a name gives are not always drawn.

biological target: T1, human C1s protein (Homo sapiens, UniProt P09871); test: recombinant C1s enzymatic assay (YLGR-Rh110-dPro substrate hydrolysis, fluorescence); format: biochemical; conditions: recombinant human C1s 2.5 nM, substrate YLGR-Rh110-dPro 20 μM, 15 min pre-incubation, 60 min RT; read-out: rec. hC11s pIC50 (converted)
T1 construct: purchased R&D Systems or Complement Technologies 2060-SE or A104
T1 sequence (P09871 16-688): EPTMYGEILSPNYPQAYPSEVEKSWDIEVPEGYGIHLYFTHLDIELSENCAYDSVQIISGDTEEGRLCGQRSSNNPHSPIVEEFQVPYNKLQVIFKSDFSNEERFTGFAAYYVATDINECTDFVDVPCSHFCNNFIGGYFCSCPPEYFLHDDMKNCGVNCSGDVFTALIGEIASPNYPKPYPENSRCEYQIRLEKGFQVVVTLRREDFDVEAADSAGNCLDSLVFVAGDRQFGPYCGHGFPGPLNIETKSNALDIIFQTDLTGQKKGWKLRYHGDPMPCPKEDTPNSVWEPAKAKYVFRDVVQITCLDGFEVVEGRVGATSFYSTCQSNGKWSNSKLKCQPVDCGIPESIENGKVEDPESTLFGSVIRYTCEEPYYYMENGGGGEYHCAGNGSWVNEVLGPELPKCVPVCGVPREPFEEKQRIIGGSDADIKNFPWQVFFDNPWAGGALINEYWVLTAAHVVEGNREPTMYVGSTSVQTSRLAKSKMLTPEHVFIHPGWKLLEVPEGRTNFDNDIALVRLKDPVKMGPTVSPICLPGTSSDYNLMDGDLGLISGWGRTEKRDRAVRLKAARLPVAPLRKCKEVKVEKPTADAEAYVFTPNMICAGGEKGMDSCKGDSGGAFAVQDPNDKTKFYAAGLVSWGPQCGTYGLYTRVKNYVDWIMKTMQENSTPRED
Method: Compound testing in the purified or recombinant C1s enzymatic assay C1s is a serine protease; its enzymatic activity is measured in vitro by the hydrolysis of the synthetic substrate YLGR-Rh110-dPro (Kerr F K, O'Brien G, Quinsey N S, Whisstock J C, Boyd S, de la Banda M G, Kaiserman D, Matthews A Y, Bird P I, Pike R N. Elucidation of the substrate specificity of the Cis protease of the classical complement pathway. J. Biol. Chem. (2005) 280, 39510-39514). The enzyme cleaves the substrate with the release of Rh110 which is highly fluorescent. Cis inhibitors prevent the hydrolysis of the substrate thus resulting in a decrease of the signal.
The recombinant C1s enzymatic assay is performed using the human C1s protein (R&D Systems, 2060-SE or Complement Technologies, A104). The assay buffer composition is: 50 mM HEPES pH 7.5 (Sigma, H3375), 150 mM NaCl (Sigma, S7653), 0.2% PEG 8000 (VWR, AA43443-22), 0.01% Pluronic F127 (Sigma, P2243). On the day of the experiment 0.1 mg/mL BSA (Sigma, B4287) is added fresh to the buffer. The test item stock solutions are serially diluted 1:3 or 1:4 or 1:5 with DMSO, 11-point curves, in a 384-well compound plate. Nafamostat concentration curve is always included in the assay plate as a reference control.
The assay plate is prepared by dispensing 0.25 μL from compound plate into a 384-well black assay plate (assay plate, Greiner Fluotrac 200, 781076, VWR 736-0140). The high controls are prepared dispensing in 0.25 μL DMSO in column 23, rows AH or AP and low controls with 0.25 μL of 0.1 μM Nafamostat. Cis solution is prepared as 2× of the 2.5 nM final assay concentration. The YLGR-Rh110-dPro substrate is prepared as 2× of the final assay concentration of 20 μM. 5 μL/well of 2× enzyme solution is dispensed and pre-incubated for 15 min with the compounds. The enzymatic reaction is the started with 5 μL/well of the 2× substrate solution. The plate is incubated for 60 min RT in the dark and fluorescence is measured (ex 485/em 535 nm) using an Envision (PerkinElmer) or an equivalent instrument.

Row | SMILES | IC50
1 | Nc1cnnc2cc(-c3cc4c(cc3-c3nccs3)OCCOB4O)ccc12 [Example 76, 7-(1-hydroxy-7-thiazol-2-yl-3,4-dihydro-2,5,1-benzodioxaborepin-8-yl)cinnolin-4-amine] | 1.45 nM
2 | CC1(C)COc2cc(-n3cccn3)c(-c3ccc4c(N)cnnc4c3)cc2B(O)O1 [Example 77, 7-(1-hydroxy-3,3-dimethyl-7-pyrazol-1-yl-4H-2,5,1-benzodioxaborepin-8-yl)cinnolin-4-amine] | 1.58 nM
3 | COc1cc(-n2cc(C(F)(F)F)cn2)c(-c2ccc3c(N)cnnc3c2)cc1B(O)O [Example 81, 5-(4-aminocinnolin-7-yl)-2-methoxy-4-[4-(trifluoromethyl)pyrazol-1-yl]phenyl]boronic acid formic acid salt] | 1.17 nM
4 | CCOc1cc(-n2cccn2)c(-c2ccc3c(N)cnnc3c2)cc1B(O)O [Example 82, [5-(4-aminocinnolin-7-yl)-2-ethoxy-4-pyrazol-1-yl-phenyl]boronic acid] | 1.23 nM
5 | COc1cc(-c2ncc(C(F)(F)F)s2)c(-c2ccc3c(N)cnnc3c2)cc1B(O)O [Example 83, [5-(4-aminocinnolin-7-yl)-2-methoxy-4-[5-(trifluoromethyl)thiazol-2-yl]phenyl]boronic acid] | 1.23 nM
6 | COc1cc(-n2cc(OC(F)F)cn2)c(-c2ccc3c(N)cnnc3c2)cc1B(O)O [Example 84, [5-(4-aminocinnolin-7-yl)-4-[4-(difluoromethoxy)pyrazol-1-yl]-2-methoxy-phenyl]boronic acid formic acid salt] | 0.741 nM
7 | COc1cc(-n2cc(OC(F)(F)F)cn2)c(-c2ccc3c(N)cnnc3c2)cc1B(O)O [Example 85, [5-(4-aminocinnolin-7-yl)-2-methoxy-4-[4-(trifluoromethoxy)pyrazol-1-yl]phenyl]boronic acid formic acid salt] | 1.2 nM
8 | COc1cc(-c2ncc(C(F)F)s2)c(-c2ccc3c(N)cnnc3c2)cc1B(O)O [Example 86, [5-(4-aminocinnolin-7-yl)-4-[5-(difluoromethyl)thiazol-2-yl]-2-methoxy-phenyl]boronic acid] | 0.741 nM
9 | COc1cc(-c2ncc(C)o2)c(-c2ccc3c(N)cnnc3c2)cc1B(O)O [Example 88, [5-(4-aminocinnolin-7-yl)-2-methoxy-4-(5-methyloxazol-2-yl)phenyl]boronic acid formic acid salt] | 0.724 nM
10 | Nc1cnnc2cc(-c3cc(B(O)O)c(OC4CC4)cc3-n3cccn3)ccc12 [Example 89, [5-(4-aminocinnolin-7-yl)-2-(cyclopropoxy)-4-pyrazol-1-yl-phenyl]boronic acid formic acid salt] | 0.759 nM
11 | COc1cc(-c2ncc(C(F)F)o2)c(-c2ccc3c(N)cnnc3c2)cc1B(O)O [Example 90, [5-(4-aminocinnolin-7-yl)-4-[5-(difluoromethyl)oxazol-2-yl]-2-methoxy-phenyl]boronic acid formic acid salt] | 1.02 nM
12 | COc1cc(-c2ncns2)c(-c2ccc3c(N)cnnc3c2)cc1B(O)O [Example 91, [5-(4-aminocinnolin-7-yl)-2-methoxy-4-(1,2,4-thiadiazol-5-yl)phenyl]boronic acid formic acid salt] | 0.468 nM
